The source of these data is patent US20070077583A1, “Alpha enolase-directed diagnostics and therapeutics for cancer and chemotherapeutic drug resistance” (Aurelium BioPharma, Inc., priority 2005, published 2007).

The test system of one series is MCF-7 cells. As to the kind of experiment: MTT cytotoxicity assay, MCF-7 cells transfected with α-enolase siRNA. It is filed as cell-based, human. The method, then: For a typical siRNA transfection, 1 nmole of the annealed siRNA duplex was mixed with 1.4 ml of Opti-MEM reagent (Invitrogen). In another tube, […] of Oligofectamine reagent (Invitrogen, Carlsbad, Calif.) is mixed with […] of Opti-MEM. The two solutions are combined and mixed gently by inversion and incubated for 20 min. at RT. The resulting solution is added to the cultured cells drop by drop in a 10 cm dish (cells are approximately 40-50% confluent). The next day the transfected cells were trypsinized and seeded in 6 or 96-well plates and further incubated for the indicated amount of time (assay dependent) before further analysis.
To evaluate the effect of α-enolase depletion on the chemosensitivity of cells to cytotoxic agents, MTT assays were performed in breast adenocarcinoma MCF-7 cells transfected with α-enolase specific siRNAs. […] The predicted EC50 values (the effective dose of a compound responsible for a positive effect half-way between baseline and maximum net impact) for the α-enolase-depleted cells are shown in Table 3. Similarly, results using other chemotherapeutic drugs are also shown in the table indicating the sensitivity of breast cancer tissue to α-enolase depletion.
A general note: Tetrazolium dyes change colour on reduction, which living cells bring about.

The test system of another series is A549 cells. Nature of the series: MTT cytotoxicity assay, A549 cells transfected with α-enolase siRNA.
For another series, the system named is H460 cells. Nature of the series: MTT cytotoxicity assay, H460 cells transfected with α-enolase siRNA. It is filed as cell-based, human. Here is the method:
To establish the effectiveness of α-enolase silencing on other cancer cell types, H460 non-small cell lung cancer cells were challenged with a chemotherapeutic drug, MTT cytotoxicity assays were carried out and survival curves plotted as shown in FIG. 17.

In the next series the test system is PC-3 cells. As to the kind of experiment: MTT cytotoxicity assay, PC-3 cells transfected with α-enolase siRNA. As to conditions: for EC50: Homo sapiens. It is filed as cell-based.
For another series, the system named is MDA-435 cells. As to the kind of experiment: cells. The class given is cell-based, human. To be noted: MDA-435 cells; for EC50: Homo sapiens, MDA435. Here is the method:
Similar tests utilizing α-enolase siRNA were performed on MDA-435 breast adenocarcinoma cells. Chemosensitivity to various drugs was determined for the MDA-435 cells as described above.

The subject of another series is CaOV3 cells. Nature of the series: MTT cytotoxicity assay, CaOV3 cells transfected with α-enolase RNAi. It is filed as cell-based, human. As to conditions: for EC50: Homo sapiens, 72 hours post transfection. The source says: These observations were expanded by targeting α-enolase in the ovarian cancer cell line, CaOV3.
For a further series, the system named is α-enolase. As to the kind of experiment: Western blot of α-enolase protein expression after siRNA transfection. To be noted: MCF-7 cells. The class given is cell-based, human. Here is the method: Western blot analysis utilizing anti-α-enolase antibodies was performed on MOLT4 cell extracts fractionated on SDS-PAGE (FIG. 3). Cells extract were prepared according to the protocol detailed in Example 1. […] Resolved proteins were electrophoretically transferred onto nitrocellulose membranes (Hybond, Amercham Pharmacia Biotech) for 1 hour. […] After blocking the membranes with 5% non-fat milk in 1×PBS overnight at 4° C., all antibody-binding reactions were performed in 5% non-fat milk in 1×PBS for 2 hours at room temperature for primary antibodies and for 1 hour for secondary antibodies coupled to HRP. The signal was detected by the Supersignal west Pico chemiluminescent substrate (Pierce, Rockford, Ill., USA). Two polyclonal antibodies against α-enolase were used: a goat antibody against human α-enolase (Santa Cruz Biotechology, Inc., Santa Cruz, Calif.); rabbit polyclonal antibody against human α-enolase (NNE) (MorphoSys AG, Munich, Del.). Membranes were subsequently blotted with anti-GAPDH (Novus Biologicals, Inc., Littleton, Colo.) or anti-prohibitin mouse monoclonal antibody (Lab Vision Corp., Fremont, Calif.) as controls for protein loading. To establish the importance of α-enolase to the expression of the drug-resistant phenotype in cell lines, α-enolase expression was silenced using RNAi. Briefly, the following siRNA duplexes targeting the human α-enolase mRNA were designed and purchased either from Ambion (Austin, Tex.) or Invitrogen (Carlsbad, Calif.). […] [NT] ID NO: 2) targeting the mRNA sequence corresponding to nucleotides […] from the start of the transcript (Ref Seq ID number: NM-001428). […] In another tube, […] of Oligofectamine reagent (Invitrogen, Carlsbad, Calif.) is mixed with […] of Opti-MEM. The two solutions are combined and mixed gently by inversion and incubated for 20 min. at RT. […] The next day the transfected cells were trypsinized and seeded in 6 or 96-well plates and further incubated for the indicated amount of time (assay dependent) before further analysis.
In general terms: In western blotting, separated proteins are transferred to a membrane and probed.

Where [1] appears, read: Homo sapiens, MCF7, MCF-7 cells, control siRNA, 72 hrs drug, read-out: Control (EC50).
[2] abbreviates: Homo sapiens, MCF7, MCF-7 cells, α-enolase specific siRNA, read-out: α-Enolase (EC50).
Setting [3] is: Homo sapiens, A549, read-out: Control (EC50).
[4] abbreviates: Homo sapiens, A549, read-out: α-Enolase (EC50).
Where [5] appears, read: Homo sapiens, NCI-H460, control, read-out: Control (EC50).
The mark [6] stands for this setting: Homo sapiens, NCI-H460, α-enolase specific siRNA, read-out: α-Enolase (EC50).
[7] abbreviates: control, read-out: Control (EC50).
The mark [8] stands for this setting: α-enolase specific siRNA, read-out: α-Enolase (EC50).
The mark [9] stands for this setting: Eno-1 siRNA, read-out: Eno-1 (EC50).
Setting [10] is: Eno-1 stealth siRNA, read-out: Eno-1 ST (EC50).
Where [11] appears, read: control siRNA, read-out: Control (EC50).
The mark [12] stands for this setting: mock transfection, read-out: Mock (EC50).

Usually EC50 stands for the concentration at which the effect is half-maximal.

Entries after “also recorded” stand apart in the source; their conditions may differ. Read-outs that look alike come from different tables or passages of the source.

Method for A549 cells: Small interfering RNA transfected cells were seeded in triplicate into 96-well plates at 5×10^3 cells/well 48 hrs post-transfection. The cells were incubated for an additional 16-24 hrs before they were exposed to increasing concentrations of cytotoxic drugs. […] Appropriate dilutions were made in the respective media for each cell line. Following addition of drugs, incubation was continued for an additional 72 hrs. Twenty-five ml of MTT dye (5 mg/ml) were added into each well and the plate was further incubated at 37° C. for 4 hrs. The dye was solubilized with 10% Triton X-100, 0.01 N HCl and further incubated at 37° C. in the dark for 30 min. Cell viability was determined by measure of absorption at 570 nm in a Wallac multiwell plate reader (PerkinElmer, Inc., Boston, Mass.). The averages of triplicate wells were plotted using the Prism software (GraphPad Software, Inc., San Diego, Calif.).
To investigate if α-enolase is broadly involved in mediating drug resistance to microtubule targeting agents, non-small cell lung cancer cell lines A549 and H460, respectively, were transfected with α-enolase siRNA and enolase expression and viability were assessed.

Take `COc1cccc2c1C(=O)c1c(O)c3c(c(O)c1C2=O)C[C@@](O)(C(=O)CO)C[C@@H]3O[C@H]1C[C@H](N)[C@H](O)[C@H](C)O1` [Doxorubicin]: the half-maximal effective concentration (EC50) in the series on MCF-7 cells (setting [1]) was 90600 nM; in the series with MCF-7 cells (setting [2]), 62600 nM; in the series with A549 cells (setting [3]), 289 nM; with A549 cells (setting [4]), 297 nM; in the series on H460 cells (setting [5]) it was 119 nM; in the series with H460 cells (setting [6]), 30 nM. For the same compound, the “viability of α-enolase-silenced cells under drug treatment vs control cells” value (from here on “viability … vs control cells”) with H460 cells was “greatest decreases in viability”.
`O=C1c2c(O)ccc(O)c2C(=O)c2c(NCCNCCO)ccc(NCCNCCO)c21` [Mitoxantrone]: the EC50 in the series with MCF-7 cells (setting [1]) was 8680 nM; with MCF-7 cells (setting [2]), 7820 nM; with A549 cells (setting [3]), 136 nM; in the series on A549 cells (setting [4]), 88.8 nM; in the series with H460 cells (setting [5]), 224 nM; in the series with H460 cells (setting [6]) it was 70.8 nM. For the same compound, in the series with A549 cells (A549 cells), the “chemosensitivity of α-enolase-silenced cells (words)” value (shortened to “chemosensitivity”) was “increased sensitivity”. Besides, the “viability … vs control cells” value in the series with H460 cells is recorded as “decreased the viability”.
Consider `CC(=O)O[C@@]12CO[C@@H]1C[C@H](O)[C@@]1(C)C(=O)[C@H](O)C3=C(C)[C@@H](OC(=O)[C@H](O)[C@@H](NC(=O)OC(C)(C)C)c4ccccc4)C[C@@](O)([C@@H](OC(=O)c4ccccc4)[C@H]21)C3(C)C` [Docetaxel], for which the EC50 in the series on MCF-7 cells (setting [1]) amounted to 73.5 nM; with MCF-7 cells (setting [2]), 36.5 nM; in the series with PC-3 cells (setting [7]), 0.348 nM; in the series on PC-3 cells (setting [8]) it was 0.0547 nM; with A549 cells (setting [3]), 7.01 nM; with A549 cells (setting [4]) it was 0.351 nM. For the same compound, the 50% effective concentration (EC50) amounted to 0.182 nM in the series with MDA-435 cells (setting [9]); 0.124 nM in the series on MDA-435 cells (setting [10]); 0.645 nM in the series with MDA-435 cells (setting [11]); 0.226 nM in the series with MDA-435 cells (setting [12]); 1.36 nM in the series on H460 cells (setting [5]); 0.663 nM in the series with H460 cells (setting [6]). In addition, the “chemosensitivity” value with A549 cells (A549 cells) is listed as “enhanced chemosensitivity; also recorded: significant shifts in their chemosensitivities”. Also, the “sensitivity of α-enolase-silenced cells” value in the series with MDA-435 cells was “Increases in sensitivity”. Moreover, in the series on H460 cells, the “viability … vs control cells” value is “decreased the viability”.
Consider `CC[C@]1(O)C[C@@H]2CN(CCc3c([nH]c4ccccc34)[C@@](C(=O)OC)(c3cc4c(cc3OC)N(C)[C@H]3[C@@](O)(C(=O)OC)[C@H](OC(C)=O)[C@]5(CC)C=CCN6CC[C@]43[C@@H]65)C2)C1` [Vinblastin], for which the “decrease of chemotherapeutic drug resistance by α-enolase-directed siRNA vs mock siRNA” value in the series on CaOV3 cells is listed as 8 fold. Further, the EC50 stood at 0.022 nM in the series with CaOV3 cells (Caov-3, control, read-out: Control (EC50)); 0.00349 nM in the series with CaOV3 cells (Caov-3, α-enolase specific RNAi, read-out: α-Enolase (EC50)); 0.0529 nM in the series with PC-3 cells (setting [7]); 0.00553 nM in the series on PC-3 cells (setting [8]); 2.39 nM in the series on A549 cells (setting [3]); 0.076 nM with A549 cells (setting [4]). The half-maximal effective concentration (EC50) with MDA-435 cells (setting [9]) stood at 0.872 nM; with MDA-435 cells (setting [10]), 0.917 nM; in the series on MDA-435 cells (setting [11]) it was 0.709 nM; in the series with MDA-435 cells (setting [12]), 1.04 nM; with H460 cells (setting [5]) it was 3.09 nM; with H460 cells (setting [6]) it was 1.54 nM. Besides, the “combination with enolase siRNA in cell killing” value in the series on PC-3 cells (listed as vinblastine) was “synergistic; also recorded: augment PC-3 cell killing”. In addition, the “chemosensitivity” value in the series on A549 cells (A549 cells) is given as “enhanced chemosensitivity”; with A549 cells (A549 cells, listed as vinblastine), “significant shifts in their chemosensitivities”. Besides, the “viability … vs control cells” value with H460 cells was “decreased the viability”.
For `N.N.[Cl][Pt][Cl]` [Cisplatinum], the EC50 in the series with MCF-7 cells (MCF-7 cells, control siRNA, 72 hrs drug, read-out: Control (EC50)) was found to be 118000 nM; in the series with MCF-7 cells (MCF-7 cells, α-enolase specific siRNA, read-out: α-Enolase (EC50)), 92000 nM; in the series with A549 cells (read-out: Control (EC50), A549 cells, control siRNA), 327000 nM; with A549 cells (read-out: α-Enolase (EC50), A549 cells, α-enolase specific siRNA), 218000 nM; in the series with H460 cells (setting [7]), 44.4 nM; in the series with H460 cells (setting [8]), 24 nM. Also, in the series on H460 cells, the “viability … vs control cells” value is given as “decreased the viability”.
On to `COc1cc([C@@H]2c3cc4c(cc3[C@@H](O[C@@H]3O[C@@H]5CO[C@@H](C)O[C@H]5[C@H](O)[C@H]3O)[C@H]3COC(=O)[C@H]23)OCO4)cc(OC)c1O` [Etoposide], for which the EC50 in the series with MCF-7 cells (setting [1]) came to 16100 nM; with MCF-7 cells (setting [2]) it was 27000 nM; in the series on A549 cells (setting [3]) it was 20500 nM; with A549 cells (setting [4]), 10100 nM; with H460 cells (setting [5]), 5370 nM; in the series with H460 cells (setting [6]) it was 1910 nM. Also, the “chemosensitivity” value in the series with A549 cells (A549 cells) is recorded as “increased sensitivity”. For the same compound, in the series on H460 cells, the “viability … vs control cells” value is “decreased the viability”.
“VEGF-directed siRNA: chemically modified Stealth siRNA duplex targeting VEGF, SEQ ID NO: 8 and 9 (chain 1 ACAAAUGUGAAUGCAGACCAAAGAA; chain 2 UUCUUUGGUCUGCAUUCACAUUUGU; chemically modified Stealth duplex, pattern not given here)”: the “decrease of α-enolase expression” value with α-enolase is approximately 100%.
`N[C@@H](Cc1ccc(N(CCCl)CCCl)cc1)C(=O)O` [Melphalan]: the half-maximal effective concentration (EC50) with MCF-7 cells (Homo sapiens, MCF7, 72 h, read-out: Control (EC50)) was found to be 14700 nM; in the series on MCF-7 cells (Homo sapiens, MCF7, read-out: α-Enolase (EC50)), 11500 nM.
